Assay results reported in patent publication US20250297135A1, “CERIA AND HYDROXAMIC ACID CMP COMPOSITION” (ENTEGRIS, INC., priority 2024, published 2025).
Read-outs that look alike come from different tables or passages of the source.

Tests used:
[1] = Aqueous solubility from supersaturated solution, 1H NMR quantification; conditions: deionized water, pH adjusted to 5.5 using nitric acid, stirred overnight, filtered
Procedure: (§1) To measure the aqueous solubility, a supersaturated solution of each hydroxamic acid compound was prepared in deionized water. The pH was adjusted to 5.5 using nitric acid and the supersaturated solution was stirred overnight. Excess solids were removed via filtration and the hydroxamic acid compound in solution was quantified using ^1H NMR with a t-BuOH standard.

[2] = pH 5.5
Procedure: as §1

| Aqueous Solubility [1] [%] | Aqueous Solubility [2] [%] | SMILES |
| --- | --- | --- |
| 0.5 | – | Cc1ccccc1C(=O)NO [4MeBHA, methylbenzo hydroxamic acid] |
| – | 0.5 | COc1ccc(CCCCC(=O)NO)cc1 [4pAnisBuHA, 4-(p-anisyl) butyrohydroxamic acid] |
| – | 1.0 | O=C(NO)c1ccc(F)cc1 [4FBHA, 4-Fluorobenzohydroxamic acid] |
